Measurements: patent US7833998B2, “Oral neurotherapeutic cephalosporin sulfoxide and sulfone-containing compositions” (Revaax Pharmaceuticals, LLC, priority 2003, dated 2010)

Legend:
[1] = system: golden hamsters; conditions: King et al. 2001; effective anxiolytics at doses of 1 μg/kg and above; cited from earlier work
[2] = system: Wistar rats; conditions: rat, literature validation of the method; cited from earlier work
[3] = system: Syrian golden hamsters (Mesocricetus auratus); assay: resident/intruder model of offensive aggression (serenic activity); type: in vivo
Text: Agonistic behavior can be classified as either offensive or defensive aggression (Blanchard, R. J., Blanchard, D. C. (1977) Physiology and Behavior, 1, 197-224; Adams, D. B. (1979) The Behavioral Brain Sciences, 2, 201-241; Albert, D. J. and Walsh, M. L. (1984) Neuroscience and Behavioral Reviews, 8, 5-24). Offensive aggression is characterized by the aggressor initiating an attack on an opponent, while defensive aggression lacks active approach. Both types of aggression have their own unique neurobehavioral systems. The stimuli that elicit offensive and defense attacks are different, as are the sequences of behaviors that accompany each agonistic response. […] Offensive aggression is easily studied using male golden hamsters tested in a resident/intruder paradigm, an established model of offensive aggression ([…]. (1988) Physiology and Behavior, 44, 235-239). Placing an unfamiliar male hamster into the home cage of another male hamster elicits a well-defined sequence of agonistic behaviors from the resident that includes offensive aggression. Animal Care. Male Syrian golden hamsters (Mesocricetus auratus) (140-150 g) obtained from Harlan Sprague-Dawley Laboratories (Indianapolis, Ind.) were housed individually in Plexiglas cages (24 cm×24 cm×20 cm), maintained on a reverse light:dark cycle ([…]:10D; lights on at 19:00 hr) and provided food and water ad libitum. Animals were acclimated to the reverse light:dark cycle for at least two weeks before testing. All behavioral tests were conducted during the dark phase of the circadian cycle. Behavioral Measures and Analysis. Hamsters are nocturnal and as such behavioral tests were performed during the first four hours of the dark phase under dim red illumination. The resident was scored for offensive aggression, e.g., latency to bite the intruder, total contact time with the intruder, the total number of bites, and flank marking, over a 10 minute test period ([…]. (1988) Physiology and Behavior, 44, 235-239). Flank marking is a form of olfactory communication in which a hamster arches its back and rubs pheromone producing flank glands against objects in the environment (Johnston, R. E. (1985) Communication, In: THE HAMSTER REPRODUCTION AND BEHAVIOR. Ed Siegel, H. I. Plenum Press, New York, pp 121-154). […] Parametric data, i.e., latencies and contact time, were analyzed with a one-way ANOVA followed by Newman-Keuls post hoc tests. Non-parametric data, i.e., number of bites and flank marks, were analyzed with Kruskal-Wallis tests followed by Mann-Whitney U tests to determine differences between groups. Method. […] Ninety min after oral gavage an intruder was placed into the home cage and the resident scored for offensive aggression. Following aggression testing, animals were screened for motor activity in an open field paradigm and sexual motivation (FIGS. 4a-b).

[4] = system: Wistar rats; assay: elevated plus-maze; type: in vivo, rat
Text: The elevated plus-maze was developed for the assessment of anxiolytic and anxiogenic drug effects in the rat (Pellow et al., (1985) Journal of Neuroscience Methods 14: 149-167). The method has been validated behaviorally, physiologically, and pharmacologically. The plus-maze has two open arms and two enclosed arms. […] Conversely, anxiogenic compounds such as yohimbin or amphetamines reduce open arm entries and time spent in the open arms.
Method. Male Wistar rats weighing 250-300 g were group housed in a normal 12:12 light-dark cycle light on at 0800 hour and provided food and water ad libitum. The plus-maze consisted of two open arms, 50×10 cm, and two enclosed arms 50×10×40 cm with an open roof, arranged such that the two open arms were opposite to each other. The maze was elevated to a height of 50 cm. Four groups of five animals each were tested in the plus-maze 90 minutes following oral gavage of either vehicle, or 100 ng/kg, 10 μg/kg, or 1 mg/kg of delta-2-cefazolin-1-sulfoxide (Δ^2-cefazolin sulfoxide). At the start of the experiment the animal was place in the center of the plus maze facing the closed arm. Over a 3 minute observation period, animals were scored for the latency to enter the closed arm, time spent in the closed arm, and the number of open arm entries following the first occupation of the closed arm.

[5] = system: Syrian golden hamsters (Mesocricetus auratus); conditions: in vivo, po
Text: Method. […] Ninety min after oral gavage an intruder was placed into the home cage and the resident scored for offensive aggression. Following aggression testing, animals were screened for motor activity in an open field paradigm and sexual motivation (FIGS. 4a-b).

[6] = system: extracellular neurotransmitter levels in the area of the nucleus accumbens; assay: microdialysis of nucleus accumbens, electrochemical detection of metabolites; type: in vivo, Sprague Dawley rats; conditions: rats, intra-peritoneal 10 ng to 100 μg/kg, dialysate 15-75 minutes post-treatment
Procedure: To test this hypothesis, extracellular neurotransmitter levels in the area of the nucleus accumbens were assessed with microdialysis following Δ^3-cefazolin sulfoxide treatment. The accumbens is part of the limbic forebrain best know for its association with the pathophysiology of schizophrenia, conditioned reinforcement and drug addiction but also thought to be involved in sensitization to early life trauma leading to the anxiety disorder PTSD or post traumatic stress disorder (Charney and Bremner (1999) The neurobiology of anxiety disorder. In: NEUROBIOLOGY OF MENTAL ILLNESS (Cahrney, D S, et al eds.), Oxford University Press, New York, pgs 494-517).
Method. Twenty-four male Sprague Dawley rats were anesthetized with sodium pentobarbital (50 mg/kg) and implanted with a unilateral microdialysis guide cannula aimed at the nucleus accumbens. Animals were divided into six groups of four animals each and treated with a range of cefazolin doses (saline vehicle, 10 ng, 100 ng, 1 μg, 10 μg, 100 μg/kg) (FIGS. 6a-c). Two days after recovery from surgery a microdialysis probe (2 mm) was lowered to the area and connected to an infusion pump through Tygon tubing. The dialysate was artificial CSF at pH 7.4 delivered at a flow rate of 1.8 μl/min. The first 30 minutes of dialysate was discarded. Thereafter, samples were collected at 15 minute intervals 45 minutes prior to and 75 minutes following intra-peritoneal administration of Δ^3-cefazolin sulfoxide. Samples were collected into microfuge tubes containing 5 μl of 0.16 N perchloric acid to stabilize catecholamines. At the end of the study, animals were sacrificed and the brains prepared for histology to verify the site of the microdialysis probe.
The levels of dopamine metabolites DOPAC (FIG. 6a) and HVA (FIG. 6b) and serotonin metabolite HIAA (FIG. 6c) were assessed by electrochemical detection. […] Measures from each of the four remaining samples collected between 15-75 minutes post-treatment were analyzed. […] Mean values were analyzed with a one-way ANOVA followed by Bonferroni's post hoc test.

[7] = system: BALBc mice; assay: radial arm maze, learning and memory; type: in vivo, mouse; conditions: intra-peritoneal 2.5 ng, 250 ng, 25 μg/kg
Text: The radial arm maze is one of the most commonly used methods for testing spatial learning and memory in rodents. Developed by Olton and co-workers (Olton, D. S., Samuelson, R. J. (1976) J. Experimental Psychology, 2: 97-115), the maze provides the simultaneous choice of several alternative paths for the test subject. Animals must learn which locations provide food (place learning) using visuospatial cues. Animal care. Male BALBc mice weighing 21-23 gm were housed individually in a normal 12:12 light-dark cycle (light on at 0600 hr) and provide food and water ad libitum. The method described below was reported by Crusio et al., (1987) Brain Research, 425: 182-185. The radial arm maze consisted of a central platform and eight arms made of transparent Plexiglas. The central part measured 22 cm in diameter. The closed arms were 25 cm long, 6 cm high and 6 cm wide. Several fresh food pellets were deposited beyond the end of each arm behind a perforated wall. This arrangement served to prevent the animals from selecting a baited arm by smelling the presence or absence of a reward. […] Entry to an arm was counted when the mouse reached the perforated wall. […] The number of errors was recorded for each day of training. […] Dose response effects were assessed by means of a repeated measured two-way ANOVA followed by Bonferroni's post hoc test.

Compound: CNCCCN1c2ccccc2CCc2ccccc21 [desipramine]
- effect on seed finding [1]: ineffective

Compound: CN1C(=O)CN=C(c2ccccc2)c2cc(Cl)ccc21 [diazepam]
- number of entries into the open arms [2]: significantly increase
- percentage of time spent in the open arms [2]: significantly increase

Compound: COC(=O)[C@@H]1[C@H]2C[C@H]3c4[nH]c5ccccc5c4CCN3C[C@@H]2CC[C@@H]1O [yohimbine]
- number of entries into the open arms [2]: reduce
- percentage of time spent in the open arms [2]: reduce
- effect on seed finding [1]: ineffective

Compound: O=C1CC2(CCCC2)CC(=O)N1CCCCN1CCN(c2ncccn2)CC1 [buspirone]
- effect on seed finding [1]: dramatically reduce

Compound: delta-2-cefazolin-1-sulfoxide
- serenic activity, inhibiting offensive aggression ([3]; oral gavage): very effective serenic
- flank marking ([3]; oral gavage 100 ng/kg, 10 μg/kg, 1 mg/kg, 90 min, 10 minute test (FIG. 3d)): significantly increased
- latency to bite ([3]; oral gavage 100 ng/kg, 10 μg/kg, 1 mg/kg, 90 min, 10 minute test, p<0.01 (FIG. 3a)): significantly increased
- number of bites ([3]; oral gavage 100 ng/kg, 10 μg/kg, 1 mg/kg, 90 min, 10 minute test, p<0.01 (FIG. 3c)): decreased
- contact time ([3]; oral gavage, 90 min, 10 minute test, highest dose (1 mg/kg) (FIG. 3b)): significantly reduced at the highest dose
- anxiolytic activity in the elevated plus-maze ([4]; given orally to rats): dose-dependent anxiolytic activity
- latency to enter the closed arm ([4]; rats, oral gavage 100 ng/kg, 10 μg/kg, 1 mg/kg, 90 min, 3 minute observation, vs vehicle (FIG. 2a)): increased
- time spent in the open arm ([4]; rats, oral gavage 100 ng/kg, 10 μg/kg, 1 mg/kg, 90 min, vs vehicle (FIG. 2b)): significantly increased (p<0.01)
- motor activity (open field) [5]: no change
- sexual motivation [5]: no change

Compound: Cc1nnc(SCC2=C(C(=O)O)N3C(=O)[C@@H](NC(=O)Cn4cnnn4)[C@H]3[S+]([O-])C2)s1 (some centres unmarked) [Δ^3-cefazolin sulfoxide, cefazolin-1-sulfoxide]
- DOPAC levels (dopamine metabolite) ([6]; pg/15 μl (FIG. 6a)): significant (*p<0.05; **p<0.01) dose-dependent increase
- HVA levels (dopamine metabolite) ([6]; pg/15 μl (FIG. 6b)): significant (*p<0.05; **p<0.01) dose-dependent increase
- HIAA levels (serotonin metabolite) ([6]; pg/15 μl (FIG. 6c)): significant (*p<0.05; **p<0.01) dose-dependent increase
- number of errors ([7]; day five, vs vehicle): no significant difference
- number of errors ([7]; testing days three and four, vs vehicle control (*p<0.05, **p<0.01) (FIG. 5)): significantly reduced

Compound: CNCCC(Oc1ccc(C(F)(F)F)cc1)c1ccccc1 (centres unmarked) [fluoxetine]
- effect on seed finding [1]: dramatically reduce
